According to the NIST ThermoML archive (doi:10.1021/je049662k):

Conditions: Liquid; for mass density: isochoric method; for viscosity: Falling or rolling sphere viscometry

CCC(C)C(C)C (stereo unspecified) [2,3-dimethylpentane]
Conditions	mass density [kg/m3]	viscosity [mPa·s]
278.15 K, 100 kPa	707.6	–
278.15 K, 1000 kPa	708.3	–
278.15 K, 5000 kPa	711.6	–
278.15 K, 10000 kPa	715.5	–
278.15 K, 15000 kPa	719.1	–
278.15 K, 20000 kPa	722.7	–
278.15 K, 25000 kPa	726	–
278.15 K, 30000 kPa	729.2	–
278.15 K, 35000 kPa	732.2	–
278.15 K, 40000 kPa	735.2	–
278.15 K, 45000 kPa	738	–
283.15 K, 100 kPa	703.2	–
283.15 K, 1000 kPa	704	–
283.15 K, 5000 kPa	707.4	–
283.15 K, 10000 kPa	711.5	–
283.15 K, 15000 kPa	715.3	–
283.15 K, 20000 kPa	718.9	–
283.15 K, 25000 kPa	722.3	–
283.15 K, 30000 kPa	725.6	–
283.15 K, 35000 kPa	728.7	–
283.15 K, 40000 kPa	731.7	–
283.15 K, 45000 kPa	734.6	–
293.15 K, 100 kPa	694.9	–
293.15 K, 1000 kPa	695.7	–
293.15 K, 5000 kPa	699.3	–
293.15 K, 10000 kPa	703.6	–
293.15 K, 15000 kPa	707.7	–
293.15 K, 20000 kPa	711.5	–
293.15 K, 25000 kPa	715.1	–
293.15 K, 30000 kPa	718.6	–
293.15 K, 35000 kPa	721.9	–
293.15 K, 40000 kPa	725	–
293.15 K, 45000 kPa	728	–
303.15 K, 100 kPa	686.3	0.356
303.15 K, 1000 kPa	687.2	0.36
303.15 K, 5000 kPa	691.1	0.377
303.15 K, 10000 kPa	695.7	0.398
303.15 K, 15000 kPa	700	0.419
303.15 K, 20000 kPa	704.1	0.441
303.15 K, 25000 kPa	707.9	0.462
303.15 K, 30000 kPa	711.6	0.485
303.15 K, 35000 kPa	715	0.507
303.15 K, 40000 kPa	718.3	0.53
303.15 K, 45000 kPa	721.5	0.553
303.15 K, 50000 kPa	–	0.576
303.15 K, 55000 kPa	–	0.6
303.15 K, 60000 kPa	–	0.624
313.15 K, 100 kPa	677.6	0.324
313.15 K, 1000 kPa	678.6	0.328
313.15 K, 5000 kPa	682.8	0.343
313.15 K, 10000 kPa	687.7	0.361
313.15 K, 15000 kPa	692.3	0.38
313.15 K, 20000 kPa	696.6	0.399
313.15 K, 25000 kPa	700.7	0.418
313.15 K, 30000 kPa	704.5	0.438
313.15 K, 35000 kPa	708.2	0.458
313.15 K, 40000 kPa	711.6	0.479
313.15 K, 45000 kPa	715	0.5
313.15 K, 50000 kPa	–	0.522
313.15 K, 55000 kPa	–	0.544
313.15 K, 60000 kPa	–	0.566
323.15 K, 100 kPa	668.7	0.29
323.15 K, 1000 kPa	669.8	0.294
323.15 K, 5000 kPa	674.3	0.308
323.15 K, 10000 kPa	679.6	0.326
323.15 K, 15000 kPa	684.5	0.344
323.15 K, 20000 kPa	689.1	0.362
323.15 K, 25000 kPa	693.4	0.381
323.15 K, 30000 kPa	697.5	0.399
323.15 K, 35000 kPa	701.3	0.418
323.15 K, 40000 kPa	705	0.437
323.15 K, 45000 kPa	708.4	0.457
323.15 K, 50000 kPa	–	0.476
323.15 K, 55000 kPa	–	0.496
323.15 K, 60000 kPa	–	0.517
333.15 K, 100 kPa	659.7	0.262
333.15 K, 1000 kPa	660.9	0.266
333.15 K, 5000 kPa	665.8	0.28
333.15 K, 10000 kPa	671.5	0.298
333.15 K, 15000 kPa	676.7	0.316
333.15 K, 20000 kPa	681.6	0.334
333.15 K, 25000 kPa	686.2	0.352
333.15 K, 30000 kPa	690.5	0.369
333.15 K, 35000 kPa	694.5	0.387
333.15 K, 40000 kPa	698.3	0.404
333.15 K, 45000 kPa	702	0.422
333.15 K, 50000 kPa	–	0.439
333.15 K, 55000 kPa	–	0.457
333.15 K, 60000 kPa	–	0.474
343.15 K, 100 kPa	650.6	0.244
343.15 K, 1000 kPa	651.9	0.247
343.15 K, 5000 kPa	657.2	0.26
343.15 K, 10000 kPa	663.3	0.276
343.15 K, 15000 kPa	668.9	0.292
343.15 K, 20000 kPa	674.1	0.309
343.15 K, 25000 kPa	678.9	0.325
343.15 K, 30000 kPa	683.5	0.342
343.15 K, 35000 kPa	687.7	0.359
343.15 K, 40000 kPa	691.7	0.376
343.15 K, 45000 kPa	695.5	0.393
343.15 K, 50000 kPa	–	0.41
343.15 K, 55000 kPa	–	0.428
343.15 K, 60000 kPa	–	0.445
353.15 K, 100 kPa	641.3	0.232
353.15 K, 1000 kPa	642.7	0.234
353.15 K, 5000 kPa	648.5	0.246
353.15 K, 10000 kPa	655.1	0.261
353.15 K, 15000 kPa	661.1	0.276
353.15 K, 20000 kPa	666.6	0.291
353.15 K, 25000 kPa	671.7	0.306
353.15 K, 30000 kPa	676.5	0.321
353.15 K, 35000 kPa	680.9	0.336
353.15 K, 40000 kPa	685.1	0.35
353.15 K, 45000 kPa	689.1	0.365
353.15 K, 50000 kPa	–	0.381
353.15 K, 55000 kPa	–	0.395
353.15 K, 60000 kPa	–	0.411

Cc1ccccc1 [toluene]
viscosity [mPa·s]
Conditions	303.15 K	313.15 K	323.15 K	333.15 K	343.15 K	353.15 K
100 kPa	0.525	0.469	0.422	0.382	0.349	0.32
1000 kPa	0.526	0.474	0.427	0.386	0.351	0.32
5000 kPa	0.544	0.487	0.439	0.397	0.362	0.331
10000 kPa	0.568	0.509	0.458	0.413	0.376	0.344
15000 kPa	0.593	0.529	0.476	0.43	0.391	0.359
20000 kPa	0.617	0.55	0.495	0.446	0.406	0.373
25000 kPa	0.64	0.57	0.514	0.463	0.421	0.387
30000 kPa	0.662	0.59	0.533	0.48	0.437	0.401
35000 kPa	0.685	0.61	0.552	0.497	0.453	0.415
40000 kPa	0.707	0.63	0.572	0.515	0.469	0.429
45000 kPa	0.729	0.651	0.592	0.533	0.485	0.443
50000 kPa	0.752	0.671	0.612	0.551	0.502	0.458
55000 kPa	0.774	0.693	0.633	0.571	0.52	0.473
60000 kPa	0.797	0.715	0.654	0.59	0.537	0.488

CCCCCCC [heptane]
viscosity [mPa·s]
Conditions	303.15 K	313.15 K	323.15 K	333.15 K	343.15 K	353.15 K
100 kPa	0.368	0.33	0.303	0.273	0.245	0.231
1000 kPa	0.371	0.334	0.306	0.276	0.247	0.233
5000 kPa	0.387	0.348	0.319	0.289	0.26	0.246
10000 kPa	0.408	0.368	0.336	0.306	0.277	0.262
15000 kPa	0.429	0.388	0.354	0.323	0.294	0.278
20000 kPa	0.45	0.407	0.371	0.34	0.31	0.293
25000 kPa	0.471	0.427	0.389	0.357	0.326	0.307
30000 kPa	0.492	0.446	0.406	0.374	0.341	0.322
35000 kPa	0.514	0.465	0.424	0.39	0.357	0.336
40000 kPa	0.535	0.484	0.442	0.407	0.372	0.349
45000 kPa	0.556	0.503	0.461	0.423	0.387	0.361
50000 kPa	0.578	0.522	0.479	0.439	0.402	0.374
55000 kPa	0.6	0.542	0.498	0.456	0.416	0.386
60000 kPa	0.622	0.562	0.517	0.472	0.431	0.397
